Measured values as given in PubChem BioAssay (NCI).
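A five-concentration, 48-hour dose response in 96-well plates underlies each endpoint, interpolated linearly between surrounding concentrations. TGI: concentration producing complete growth inhibition.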

Columns and labels:
Assay in all cases: NCI anticancer screen, dose series, 48 h
SK-OV-3 ovarian = tested on: SK-OV-3 ovarian
SNB-19 CNS = tested on: SNB-19 CNS
KM12 colon = tested on: KM12 colon
OVCAR-8 ovarian = tested on: OVCAR-8 ovarian
EKVX NSCLC = tested on: EKVX NSCLC
A549 NSCLC = tested on: A549 NSCLC
HCT-15 colon = tested on: HCT-15 colon
HT29 colon = tested on: HT29 colon
SN12C renal = tested on: SN12C renal
MALME-3M melanoma = tested on: MALME-3M melanoma
NCI-H23 lung = tested on: NCI-H23 lung
MDA-MB-435 = tested on: MDA-MB-435
IGROV1 ovarian = tested on: IGROV1 ovarian
NCI-H522 lung = tested on: NCI-H522 lung
HS 578T breast = tested on: HS 578T breast
BT-549 breast = tested on: BT-549 breast
MDA-MB-231 breast = tested on: MDA-MB-231 breast
SR leukemia = tested on: SR leukemia
HOP-62 NSCLC = tested on: HOP-62 NSCLC
MOLT-4 leukemia = tested on: MOLT-4 leukemia
PC-3 prostate = tested on: PC-3 prostate
MCF7 breast = tested on: MCF7 breast
SF-268 CNS = tested on: SF-268 CNS
T-47D breast = tested on: T-47D breast
SK-MEL-28 melanoma = tested on: SK-MEL-28 melanoma
SF-539 CNS = tested on: SF-539 CNS
A498 renal = tested on: A498 renal
COLO 205 colon = tested on: COLO 205 colon
HL-60(TB) leukemia = tested on: HL-60(TB) leukemia
NCI-H460 lung = tested on: NCI-H460 lung
SK-MEL-5 melanoma = tested on: SK-MEL-5 melanoma
UACC-257 melanoma = tested on: UACC-257 melanoma
UO-31 renal = tested on: UO-31 renal
HCC-2998 colon = tested on: HCC-2998 colon
MDA-N = tested on: MDA-N
M14 melanoma = tested on: M14 melanoma
CCRF-CEM leukemia = tested on: CCRF-CEM leukemia
NCI-H226 lung = tested on: NCI-H226 lung
SF-295 CNS = tested on: SF-295 CNS
786-0 renal = tested on: 786-0 renal
DU-145 prostate = tested on: DU-145 prostate
SNB-75 CNS = tested on: SNB-75 CNS
SW-620 colon = tested on: SW-620 colon
CAKI-1 renal = tested on: CAKI-1 renal
HCT-116 colon = tested on: HCT-116 colon
RPMI-8226 leukemia = tested on: RPMI-8226 leukemia
TK-10 renal = tested on: TK-10 renal
UACC-62 melanoma = tested on: UACC-62 melanoma
ACHN renal = tested on: ACHN renal
LOX IMVI melanoma = tested on: LOX IMVI melanoma
U251 CNS = tested on: U251 CNS
NCI/ADR-RES ovarian = tested on: NCI/ADR-RES ovarian
K-562 leukemia = tested on: K-562 leukemia
OVCAR-3 ovarian = tested on: OVCAR-3 ovarian
OVCAR-5 ovarian = tested on: OVCAR-5 ovarian
OVCAR-4 ovarian = tested on: OVCAR-4 ovarian
RXF 393 renal = tested on: RXF 393 renal
SK-MEL-2 melanoma = tested on: SK-MEL-2 melanoma

Cc1nn(C(=O)Cc2ccccc2)c2c1C(c1ccc(O)cc1O)SC(N)=N2 (stereo not given)
TGI (SK-OV-3 ovarian): > 100 µM
TGI (SNB-19 CNS): > 100 µM
TGI (KM12 colon): > 100 µM
TGI (OVCAR-8 ovarian): > 100 µM
TGI (EKVX NSCLC): > 100 µM
TGI (A549 NSCLC): > 100 µM
TGI (HCT-15 colon): > 100 µM
TGI (HT29 colon): > 100 µM
TGI (SN12C renal): > 100 µM
TGI (MALME-3M melanoma): > 100 µM
TGI (NCI-H23 lung): > 100 µM
TGI (MDA-MB-435): > 100 µM
TGI (IGROV1 ovarian): > 100 µM
TGI (NCI-H522 lung): > 100 µM
TGI (HS 578T breast): > 100 µM
TGI (BT-549 breast): > 100 µM
TGI (MDA-MB-231 breast): > 100 µM
TGI (SR leukemia): > 100 µM
TGI (HOP-62 NSCLC): > 100 µM
TGI (MOLT-4 leukemia): > 100 µM
TGI (PC-3 prostate): > 100 µM
TGI (MCF7 breast): > 100 µM
TGI (SF-268 CNS): > 100 µM
TGI (T-47D breast): > 100 µM
TGI (SK-MEL-28 melanoma): > 100 µM
TGI (SF-539 CNS): > 100 µM
TGI (A498 renal): > 100 µM
TGI (COLO 205 colon): > 100 µM
TGI (HL-60(TB) leukemia): > 100 µM
TGI (NCI-H460 lung): > 100 µM
TGI (SK-MEL-5 melanoma): > 100 µM
TGI (UACC-257 melanoma): > 100 µM
TGI (UO-31 renal): > 100 µM
TGI (HCC-2998 colon): > 100 µM
TGI (MDA-N): > 100 µM
TGI (M14 melanoma): > 100 µM
TGI (CCRF-CEM leukemia): > 100 µM
TGI (NCI-H226 lung): > 100 µM
TGI (SF-295 CNS): > 100 µM
TGI (786-0 renal): > 100 µM
TGI (DU-145 prostate): > 100 µM
TGI (SNB-75 CNS): > 100 µM
TGI (SW-620 colon): > 100 µM
TGI (CAKI-1 renal): > 100 µM
TGI (HCT-116 colon): > 100 µM
TGI (RPMI-8226 leukemia): > 100 µM
TGI (TK-10 renal): > 100 µM
TGI (UACC-62 melanoma): > 100 µM
TGI (ACHN renal): > 100 µM
TGI (LOX IMVI melanoma): > 100 µM

Cc1ccc(/C=C/c2nnc(N/N=C/c3ccc4c(c3)OCO4)[nH]c2=O)cc1
TGI (SK-OV-3 ovarian): 93.2 µM
TGI (SNB-19 CNS): 37.4 µM
TGI (KM12 colon): 46.9 µM
TGI (OVCAR-8 ovarian): 34.7 µM
TGI (EKVX NSCLC): > 100 µM
TGI (U251 CNS): 33.6 µM
TGI (A549 NSCLC): > 100 µM
TGI (HCT-15 colon): > 100 µM
TGI (HT29 colon): 53.7 µM
TGI (SN12C renal): 38.1 µM
TGI (MALME-3M melanoma): > 100 µM
TGI (NCI-H23 lung): 32.5 µM
TGI (MDA-MB-435): > 100 µM
TGI (IGROV1 ovarian): 41.8 µM
TGI (NCI/ADR-RES ovarian): 37.5 µM
TGI (K-562 leukemia): 70.7 µM
TGI (NCI-H522 lung): > 100 µM
TGI (HS 578T breast): 34.6 µM
TGI (BT-549 breast): 33.9 µM
TGI (MDA-MB-231 breast): 29.9 µM
TGI (SR leukemia): 40.9 µM
TGI (HOP-62 NSCLC): 33.7 µM
TGI (MOLT-4 leukemia): > 100 µM
TGI (PC-3 prostate): 43.3 µM
TGI (MCF7 breast): 51.2 µM
TGI (OVCAR-3 ovarian): 36.2 µM
TGI (SF-268 CNS): 33.9 µM
TGI (T-47D breast): > 100 µM
TGI (SK-MEL-28 melanoma): 30.9 µM
TGI (OVCAR-5 ovarian): > 100 µM
TGI (SF-539 CNS): 42.4 µM
TGI (COLO 205 colon): > 100 µM
TGI (OVCAR-4 ovarian): 36.8 µM
TGI (NCI-H460 lung): 57.6 µM
TGI (SK-MEL-5 melanoma): > 100 µM
TGI (RXF 393 renal): > 100 µM
TGI (UACC-257 melanoma): > 100 µM
TGI (UO-31 renal): > 100 µM
TGI (HCC-2998 colon): 79.8 µM
TGI (MDA-N): 62.4 µM
TGI (M14 melanoma): > 100 µM
TGI (CCRF-CEM leukemia): 45.4 µM
TGI (SK-MEL-2 melanoma): 78.9 µM
TGI (NCI-H226 lung): 72.5 µM
TGI (SF-295 CNS): > 100 µM
TGI (786-0 renal): 27.9 µM
TGI (DU-145 prostate): 38.7 µM
TGI (SNB-75 CNS): 31.2 µM
TGI (SW-620 colon): 42.6 µM
TGI (CAKI-1 renal): 91.8 µM
TGI (HCT-116 colon): 45.9 µM
TGI (RPMI-8226 leukemia): > 100 µM
TGI (TK-10 renal): 58.6 µM
TGI (ACHN renal): 65.6 µM
TGI (LOX IMVI melanoma): 37.7 µM
